# Columns and labels:
# [1] = assay type: physicochemical
# Text: Both compounds were therefore dissolved in DMSO for the NMR titration experiments.
# [2] = target: T1, PDZ2 of PSD-95 (Rattus norvegicus, UniProt P31016); test: NMR chemical shift perturbation assay (1H-15N HSQC) of binding to 15N-labeled PDZ2; details: for structural perturbation of PDZ2 (chemical shift of amide groups of Ser 173 and Ala 231 normalized to maximal shift with crude extract = 100%): 10-fold excess of compound relative to PDZ2
# T1 construct: His tag (N); made in house; host or cells: Escherichia coli BL21 (DE3), pET14b
# Description: In this specific non-limiting example, the PDZ-domain of recombinant PSD-95 was uniformly labeled with ^15N using the recombinant protein production method described. The ^15N-labeled PSD-95 was expressed in and purified from E. coli bacterial cells. The NMR spectra was acquired at 30° C. on Varian Inova 500 or 750 spectrometers each equipped with a 5 mm z-shielded gradient triple resonance probes. Lyophilized ^15N-labeled PDZ2 protein dissolved in 100 mM potassium phosphate buffer at pH 6.0, with a pure recombinant protein concentration of ˜0.1-0.2 mM (typically 0.5 ml in 100 mM phosphate buffer) for spectral analysis.
# Since the identity of every resonances of the ^1H-^15N HSQC spectrum of PSD-95 PDZ domains is known, and the three dimensional structures of the PSD-95 PDZ domains could be elucidated, the quantitative values of compound-induced chemical shift changes for each amino acid residues of PSD-95 PDZ2 were computed using the equation: Δppm=[(ΔδHN)^2+(ΔδN·αN)^2]^1/2
# The scaling factor αN used to normalize ^1H and ^15N chemical shifts was 0.17. ΔδHN corresponded to the change of the ^15N-bonded hydrogen chemical shift of a specific resonance, while ΔδN corresponded to the change of the ^15N chemical shift of that resonance.
# In this method, the PDZ domain of PSD-95 is expressed recombinantly as described in Example 1 and uniformly labeled with ^15N using a recombinant protein production method. […]
# Using preparation techniques mentioned above, a ^1H,^15N HSQC spectrum was recorded for each mixture of bound PDZ2 protein, and compared with the ^1H,^15N HSQC spectrum of free PSD-95 PDZ2 (˜0.1 mM in the same buffer). […]
# The observation of chemical shift changes (with respect to the free PDZ2) as a result of mixing the protein with the herbal mixtures or pure compounds was scored as positive binding of compound(s) to PDS-95 PDZ2. […]
# The binding affinity of the compounds to PDZ2 of PSD-95 was quantified by normalizing the chemical shift of the amide groups of Ser 173 and Ala 231 in relation to the maximal shift of these groups upon incubation with the crude extract (100%). […]
# T1 sequence (P31016 156-249): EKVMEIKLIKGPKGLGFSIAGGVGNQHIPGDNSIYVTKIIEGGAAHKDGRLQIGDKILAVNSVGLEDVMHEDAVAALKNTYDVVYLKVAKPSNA
Compound,solubility in H2O [1],structural perturbation of PDZ2 (chemical shift of amide groups of Ser 173 and Ala 231 normalized to maximal shift with crude extract = 100%) [2],"chemical shift changes of PSD-95 PDZ2 HSQC spectrum relative to free PDZ2 (scored as positive binding) ([2]; 15N-labeled PDZ2 0.1-0.2 mM, 100 mM phosphate buffer pH 6.0)"
COc1c(O[C@@H]2O[C@H](C(=O)O)[C@@H](O)[C@H](O)[C@H]2O)cc(O)c2c(=O)cc(-c3ccccc3)oc12 [wogonoside],very poor solubility,,
O=C(O)[C@H]1O[C@@H](Oc2cc(O)c3c(=O)cc(-c4ccccc4)oc3c2O)[C@H](O)[C@@H](O)[C@@H]1O [norwogonoside],,around 60%,
O=C(O)[C@H]1O[C@@H](Oc2cc3oc(-c4ccccc4)cc(=O)c3c(O)c2O)[C@H](O)[C@@H](O)[C@@H]1O [baicalin],very poor solubility,around 60%,significant chemical shift changes
